Data published in ChEMBL document CHEMBL1127896, “Synthesis and pharmacological characterization of ABT-200: a putative novel antidepressant combining potent -2 antagonism with moderate NE uptake inhibition” (Bioorg Med Chem Lett, 1994).

Key:
[1] = organism: Rattus norvegicus; test: Concentration required for its norepinephrine reuptake inhibitory activity in synaptosomal rat hyphalamic preparations; type: functional
[2] = target: T1, Adrenergic receptor alpha-2 (Rattus norvegicus, UniProt P22086+P19328+P22909); test: In vitro binding affinity at Alpha-2 adrenergic receptor in rat cortex by radioligand binding assay using [3H]rauwolscine
T1 sequence (P22086 whole entry): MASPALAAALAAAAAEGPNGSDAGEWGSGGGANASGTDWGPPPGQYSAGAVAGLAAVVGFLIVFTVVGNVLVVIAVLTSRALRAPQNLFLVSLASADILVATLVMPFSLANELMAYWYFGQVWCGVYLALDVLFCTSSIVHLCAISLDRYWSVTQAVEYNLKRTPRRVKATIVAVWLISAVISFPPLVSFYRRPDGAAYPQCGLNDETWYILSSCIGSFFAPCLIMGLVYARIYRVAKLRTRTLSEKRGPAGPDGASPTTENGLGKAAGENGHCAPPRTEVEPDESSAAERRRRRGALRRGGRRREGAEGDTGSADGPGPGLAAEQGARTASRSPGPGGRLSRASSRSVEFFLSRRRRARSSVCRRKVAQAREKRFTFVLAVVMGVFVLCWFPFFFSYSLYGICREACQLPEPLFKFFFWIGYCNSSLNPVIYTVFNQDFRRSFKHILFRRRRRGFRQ
T1 sequence (P19328 whole entry): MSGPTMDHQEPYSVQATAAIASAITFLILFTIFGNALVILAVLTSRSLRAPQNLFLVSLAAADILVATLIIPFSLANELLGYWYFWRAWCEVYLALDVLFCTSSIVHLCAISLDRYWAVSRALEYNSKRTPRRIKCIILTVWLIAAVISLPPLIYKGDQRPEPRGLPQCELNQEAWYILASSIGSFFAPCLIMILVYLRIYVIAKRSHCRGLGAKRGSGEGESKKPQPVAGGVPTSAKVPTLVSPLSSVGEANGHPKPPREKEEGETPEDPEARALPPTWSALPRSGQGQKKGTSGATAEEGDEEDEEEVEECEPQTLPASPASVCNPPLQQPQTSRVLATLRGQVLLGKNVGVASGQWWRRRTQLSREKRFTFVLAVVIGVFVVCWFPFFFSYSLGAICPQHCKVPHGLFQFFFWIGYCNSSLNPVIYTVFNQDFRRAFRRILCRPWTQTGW
T1 sequence (P22909 whole entry): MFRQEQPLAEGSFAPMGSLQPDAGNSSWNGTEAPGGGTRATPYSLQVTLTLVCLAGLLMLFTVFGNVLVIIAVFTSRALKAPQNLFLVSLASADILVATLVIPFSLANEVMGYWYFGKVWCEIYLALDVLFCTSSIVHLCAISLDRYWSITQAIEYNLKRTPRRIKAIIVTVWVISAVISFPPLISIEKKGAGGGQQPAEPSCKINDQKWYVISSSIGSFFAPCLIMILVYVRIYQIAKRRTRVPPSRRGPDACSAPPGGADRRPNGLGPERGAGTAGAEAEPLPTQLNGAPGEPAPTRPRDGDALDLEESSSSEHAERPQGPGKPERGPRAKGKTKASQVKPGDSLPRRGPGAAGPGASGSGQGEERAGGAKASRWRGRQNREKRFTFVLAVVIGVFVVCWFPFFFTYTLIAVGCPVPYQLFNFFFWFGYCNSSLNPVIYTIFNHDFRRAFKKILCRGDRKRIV

[3] = target: T1, Adrenergic receptor alpha-2; test: Evaluated for its presynaptic Alpha-2 adrenergic receptor antagonistic activity against rat vas deferens using clonidine as the control expressed as slope; type: functional, tissue-based
[4] = target: T2, Adrenergic receptor alpha-1 (Rattus norvegicus, UniProt P15823+P23944+P43140); test: In vitro binding affinity at Alpha-1 adrenergic receptor by radioligand binding assay using [3H]prazosin; type: protein assay
T2 sequence (P15823 whole entry): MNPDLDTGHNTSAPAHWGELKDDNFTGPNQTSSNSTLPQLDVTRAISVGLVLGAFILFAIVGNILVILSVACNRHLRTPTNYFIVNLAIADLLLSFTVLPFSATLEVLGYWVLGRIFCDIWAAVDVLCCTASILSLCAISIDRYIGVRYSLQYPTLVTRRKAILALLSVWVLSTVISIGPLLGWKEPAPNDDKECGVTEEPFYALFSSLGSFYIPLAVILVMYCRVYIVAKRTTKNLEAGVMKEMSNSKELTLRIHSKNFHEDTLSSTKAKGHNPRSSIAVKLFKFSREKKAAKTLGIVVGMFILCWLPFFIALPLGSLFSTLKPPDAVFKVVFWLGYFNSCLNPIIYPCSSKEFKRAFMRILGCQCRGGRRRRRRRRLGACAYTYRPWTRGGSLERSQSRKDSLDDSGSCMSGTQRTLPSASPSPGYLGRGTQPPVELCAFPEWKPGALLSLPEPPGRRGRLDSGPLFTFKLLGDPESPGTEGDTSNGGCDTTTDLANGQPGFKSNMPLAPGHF
T2 sequence (P23944 whole entry): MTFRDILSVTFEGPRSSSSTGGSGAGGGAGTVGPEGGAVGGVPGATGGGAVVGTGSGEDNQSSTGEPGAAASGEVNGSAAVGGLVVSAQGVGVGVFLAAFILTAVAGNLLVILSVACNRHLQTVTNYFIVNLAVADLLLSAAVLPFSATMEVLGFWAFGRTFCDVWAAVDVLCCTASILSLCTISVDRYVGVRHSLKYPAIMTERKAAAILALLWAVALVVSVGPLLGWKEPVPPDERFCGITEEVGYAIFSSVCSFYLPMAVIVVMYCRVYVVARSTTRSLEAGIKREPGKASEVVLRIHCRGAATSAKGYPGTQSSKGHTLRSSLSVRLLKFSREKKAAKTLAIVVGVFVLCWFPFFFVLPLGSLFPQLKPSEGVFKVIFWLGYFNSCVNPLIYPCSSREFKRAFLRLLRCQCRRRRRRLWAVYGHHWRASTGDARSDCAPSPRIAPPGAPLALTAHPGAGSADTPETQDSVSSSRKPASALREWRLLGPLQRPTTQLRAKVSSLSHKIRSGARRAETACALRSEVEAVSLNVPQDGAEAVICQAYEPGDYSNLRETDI
T2 sequence (P43140 whole entry): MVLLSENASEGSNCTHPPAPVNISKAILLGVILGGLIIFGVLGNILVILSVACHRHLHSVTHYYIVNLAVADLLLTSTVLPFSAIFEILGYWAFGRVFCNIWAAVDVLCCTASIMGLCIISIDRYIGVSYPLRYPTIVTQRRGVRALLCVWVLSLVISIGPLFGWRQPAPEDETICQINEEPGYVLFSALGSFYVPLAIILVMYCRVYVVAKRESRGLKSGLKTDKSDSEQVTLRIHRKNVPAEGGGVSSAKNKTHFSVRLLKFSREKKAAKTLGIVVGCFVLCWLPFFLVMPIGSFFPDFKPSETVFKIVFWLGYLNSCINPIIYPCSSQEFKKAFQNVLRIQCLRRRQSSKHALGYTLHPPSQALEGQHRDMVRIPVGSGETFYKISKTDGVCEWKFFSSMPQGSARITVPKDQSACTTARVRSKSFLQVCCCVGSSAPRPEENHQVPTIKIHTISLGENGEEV

SMILES	IC50 ([1]; Rattus norvegicus) [nM]	Ki [2] [nM]	pA2 [3]	IC50 [1] [nM]	Ki [4] [nM]
CN(C)CCCN1c2ccccc2CCc2ccccc21 [IMIPRAMINE]	105	255	–	–	–
c1ccc([C@H]2CCN(C[C@@H]3CCCc4c3ccc3c4OCO3)C2)cc1	–	0.428	7.78	3110	106
c1ccc(C2CCN(CC3CCCc4c3ccc3c4OCO3)C2)cc1 (stereo in doubt; 6a/b)	–	0.708	7.84	1320	75.9
c1ccc([C@H]2CCN(C[C@H]3CCCc4c3ccc3c4OCO3)C2)cc1	1450	4.56	6.65	–	189
c1ccc(C2CCN(CC3CCCc4c3ccc3c4OCO3)C2)cc1 (stereo in doubt; 1a/b)	–	1.23	7.68	841	112
c1ccc([C@@H]2CCN(C[C@@H]3CCCc4c3ccc3c4OCO3)C2)cc1	1700	0.5	7.91	–	47.4
c1ccc([C@@H]2CCN(C[C@H]3CCCc4c3ccc3c4OCO3)C2)cc1	636	2.08	6.78	–	104
